Where “and” joins values, the source holds several entries; their conditions need not be identical. Equal values may be shown once.
Columns and labels:
Ctenocephalides felis = assay: 2% powder for control of flea infestations on dogs; format: in vivo; settings: for Percent of Dogs with Control / Number of Dogs on Which Fleas were Controlled: 20 mg/kg 2% powder; for Average Dead in Treated / No. of Dead Fleas Recovered in 48 Hrs.: 20 mg/kg; for No. of Dead Fleas Recovered in 48 Hrs.: Trial 1, individual dogs
Description: An experiment was carried out to determine the activity of O,O,O',O'-tetramethyl O,O'-thiodi-p-phenylene phosphorothioate 2% powder for the control of Ctenocephalides felis infestations on dogs. A group of 40 dogs of mixed breeds were obtained from a licensed laboratory animal dealer and housed in individual cages. The 2% powder was formulated from a 25% dust concentrate containing […] O,O,O',O'-tetramethyl O,O'-thiodi-p-phenylene phosphorothioate, 24% celite 209 and 50% acidic kaolin. Talc was used to dilute the concentrate to 2% active ingredient. Each dog was infested with 100 1 day old adult C. felis 72 hours prior to treatment and reinfested on a weekly basis for 6 weeks beginning 7 days after treatment. Each dog was treated with 20 mg. actual drug per kg. body weight formulated as a 2% powder. Five or more dogs were treated with a blank powder and used as infested controls. Table XV summarizes average dead fleas in treated versus average dead fleas in control.

[1] = tested on: Boophilus microplus larvae; assay: Control of acarina larvae in pipettes (simulated spray); format: in vivo; settings: Rhipicephalus microplus, 48 hours, read-out: Activity (larval mortality)
Description: Boophilus is a one-host tick which uses only one host animal during its three parasitic life stages (larvae, nymph, adult). […] Twenty larvae are enclosed in a pipette sealed at one end with a gauze material, and the "solution" containing the test compound is then drawn through the pipette with a vacuum hose, simulating a spray system. The open end of the pipette is sealed with plastiline and the ticks held for 48 hours at room temperature and 80+% humidity. Activity is based on mortality. The test compound was 100%, 100% and 0% active at 0.01%, 0.001% and 0.0001% (w/w), respectively.

COP(=S)(OC)Oc1ccc(Sc2ccc(OP(=S)(OC)OC)cc2)cc1 [O,O,O',O'-tetramethyl O,O'-thiodi-p-phenylene phosphorothioate]
Percent of Dogs with Control (Ctenocephalides felis; week 0): 100%
Percent of Dogs with Control (Ctenocephalides felis; week 1): 100%
Percent of Dogs with Control (Ctenocephalides felis; week 2): 100%
Percent of Dogs with Control (Ctenocephalides felis; week 3): 100%
Percent of Dogs with Control (Ctenocephalides felis; week 4): 92.5%
Percent of Dogs with Control (Ctenocephalides felis; week 5): 80%
Percent of Dogs with Control (Ctenocephalides felis; week 6): 45%
Number of Dogs on Which Fleas were Controlled (Ctenocephalides felis; Combination of Test 1 & 2, week 0, of 40): 40 dogs
Number of Dogs on Which Fleas were Controlled (Ctenocephalides felis; Combination of Test 1 & 2, week 1, of 40): 40 dogs
Number of Dogs on Which Fleas were Controlled (Ctenocephalides felis; Combination of Test 1 & 2, week 2, of 40): 40 dogs
Number of Dogs on Which Fleas were Controlled (Ctenocephalides felis; Combination of Test 1 & 2, week 3, of 40): 40 dogs
Number of Dogs on Which Fleas were Controlled (Ctenocephalides felis; Combination of Test 1 & 2, week 4, of 40): 37 dogs
Number of Dogs on Which Fleas were Controlled (Ctenocephalides felis; Combination of Test 1 & 2, week 5, of 40): 32 dogs
Number of Dogs on Which Fleas were Controlled (Ctenocephalides felis; Combination of Test 1 & 2, week 6, of 40): 18 dogs
Number of Dogs on Which Fleas were Controlled (Ctenocephalides felis; Experiment 1, week 0, of 20): 20 dogs
Number of Dogs on Which Fleas were Controlled (Ctenocephalides felis; Experiment 1, week 1, of 20): 20 dogs
Number of Dogs on Which Fleas were Controlled (Ctenocephalides felis; Experiment 1, week 2, of 20): 20 dogs
Number of Dogs on Which Fleas were Controlled (Ctenocephalides felis; Experiment 1, week 3, of 20): 20 dogs
Number of Dogs on Which Fleas were Controlled (Ctenocephalides felis; Experiment 1, week 4, of 20): 17 dogs
Number of Dogs on Which Fleas were Controlled (Ctenocephalides felis; Experiment 1, week 5, of 20): 14 dogs
Number of Dogs on Which Fleas were Controlled (Ctenocephalides felis; Experiment 1, week 6, of 20): 5 dogs
Number of Dogs on Which Fleas were Controlled (Ctenocephalides felis; Experiment 2, week 0, of 20): 20 dogs
Number of Dogs on Which Fleas were Controlled (Ctenocephalides felis; Experiment 2, week 1, of 20): 20 dogs
Number of Dogs on Which Fleas were Controlled (Ctenocephalides felis; Experiment 2, week 2, of 20): 20 dogs
Number of Dogs on Which Fleas were Controlled (Ctenocephalides felis; Experiment 2, week 3, of 20): 20 dogs
Number of Dogs on Which Fleas were Controlled (Ctenocephalides felis; Experiment 2, week 4, of 20): 20 dogs
Number of Dogs on Which Fleas were Controlled (Ctenocephalides felis; Experiment 2, week 5, of 20): 18 dogs
Number of Dogs on Which Fleas were Controlled (Ctenocephalides felis; Experiment 2, week 6, of 20): 13 dogs
Average Dead in Treated (Ctenocephalides felis; Test 1, week 0, control 6.2): 31.5
Average Dead in Treated (Ctenocephalides felis; Test 1, week 2, control 4.8): 40.4
Average Dead in Treated (Ctenocephalides felis; Test 1, week 6, control 3.2): 18.0
Average Dead in Treated (Ctenocephalides felis; Test 2, week 0, control 11.8): 43.5
No. of Dead Fleas Recovered in 48 Hrs. (Ctenocephalides felis; week 0): 18 and 44 and 41 and 34 and 26 and 38 and 28 and 50 and 21 and 22 and 40 and 24 and 25
No. of Dead Fleas Recovered in 48 Hrs. (Ctenocephalides felis; week 1): 30 and 44 and 53 and 43 and 14 and 37 and 26 and 74 and 49 and 57 and 33 and 31 and 38
No. of Dead Fleas Recovered in 48 Hrs. (Ctenocephalides felis; week 2): 54 and 39 and 55 and 40 and 27 and 64 and 31 and 44 and 38 and 32 and 43 and 50 and 42
No. of Dead Fleas Recovered in 48 Hrs. (Ctenocephalides felis; week 3): 37 and 36 and 47 and 43 and 35 and 42 and 33 and 63 and 44 and 60 and 29
No. of Dead Fleas Recovered in 48 Hrs. (Ctenocephalides felis; week 4): 43 and 46 and 48 and 25 and 8 and 21 and 35 and 61 and 24 and 34 and 6 and 26 and 42
No. of Dead Fleas Recovered in 48 Hrs. (Ctenocephalides felis; week 5): 35 and 63 and 48 and 16 and 5 and 21 and 11 and 36 and 14 and 46 and 39
No. of Dead Fleas Recovered in 48 Hrs. (Ctenocephalides felis; week 6): 5 and 49 and 63 and 10 and 3 and 1 and 23 and 19 and 6 and 7 and 27 and 35
mortality at 0.0001 % ([1]; 0.0001% (w/w)): 0%
mortality at 0.001 % ([1]; 0.001% (w/w)): 100%
mortality at 0.01 % ([1]; 0.01% (w/w)): 100%

Reference: patent US3968207A, “Method of controlling fleas and ticks on cats and dogs” (priority 1975, dated 1976)
